Drawing on PubChem BioAssay (NCI), this text covers GI50 and TGI for 12 compounds.

Holding throughout (assay): inhibition of tumour cell growth, NCI panel, 48 h
The test system of assay [1] is SW-620 colon.
The subject of assay [2] is NCI-H522 lung.
In assay [3] the test system is COLO 205 colon.
The subject of assay [4] is LOX IMVI melanoma.
Assay [5] relates to UO-31 renal.
Assay [6] deals with OVCAR-8 ovarian.
Assay [7] deals with SK-MEL-5 melanoma.
Assay [8] deals with UACC-257 melanoma.
Assay [9] concerns SF-295 CNS.
The subject of assay [10] is NCI-H23 lung.

SMILES strings stand for the structures.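 All cell lines were grown in 96-well plates and treated with compound for 48 hours. GI50 is the concentration that inhibits growth by half. The concentration for full growth arrest is given as TGI.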 Where only a bound is given, the exact number is not on record here.

Turning to `CN1CCN(Cc2ccc(NC(=O)c3cncc(C#Cc4cnc(N)c5ccc(F)cc45)c3)cc2C(F)(F)F)CC1`, the GI50 in assay [1] is 1.3 µM; in assay [2], 1.86 µM; in [3] it was 1.23 µM; in [4], 1.01 µM; in assay [5], 1.15 µM; in assay [6], 2.31 µM. Moreover, the GI50 in [7] was 2.26 µM; in assay [8], 4.08 µM; in [9], 2.9 µM; in assay [10], 2.4 µM. Besides, the TGI in [1] stood at 4.83 µM; in assay [2], 6.53 µM; in [3], 4.77 µM; in [4] it was 4.27 µM; in [5], 4.51 µM; in [6], 7.09 µM. Besides, the TGI in assay [7] was 6.68 µM; in assay [8], 8.63 µM; in assay [9] it was 7.35 µM; in assay [10] it was 7.86 µM.
With `O=C(Oc1ccc(O)c2c(=O)n3c(cc12)[nH]c1ccccc13)c1ccccc1`, the GI50 in assay [1] is 5.1 µM; in assay [2], 6.21 µM; in assay [3] it was 19.9 µM; in [4], 4.77 µM; in assay [5], 2.19 µM; in [6], 11.1 µM. The GI50 in assay [7] was 15.5 µM; in assay [8] it was 16.6 µM; in assay [9], 40.8 µM; in assay [10] it was 16 µM. The TGI turned out to be 26.9 µM in [1]; 41.2 µM in [2]; 45.3 µM in [3]; 20.1 µM in assay [4]; 10.1 µM in assay [5]; 32.5 µM in assay [6]. Further, the TGI is 36.9 µM in assay [7], 42.2 µM in assay [8], above 100 µM in assay [9] and 37.7 µM in assay [10].
As to `COc1cc2nc(-c3ccc(C(F)(F)F)cc3)cc(OCCCN3CCOCC3)c2cc1OC`, the GI50 in assay [1] is 3.51 µM; in assay [2], 2.52 µM; in [3] it was 0.528 µM; in [4], 0.141 µM; in [5], 1.77 µM; in [6] it was 1.95 µM. Besides, the GI50 in assay [7] was 0.288 µM; in assay [8] it was 1.67 µM; in assay [9], 0.349 µM; in [10] it was 2.36 µM. Besides, the TGI in [1] came out at 15.4 µM; in [2], 15.3 µM; in assay [3], 10.3 µM; in [4], 0.324 µM; in assay [5], 7.3 µM; in [6] it was 28.8 µM. The TGI stood at 0.997 µM in assay [7], 5.68 µM in assay [8], 1.68 µM in [9] and 12 µM in assay [10].
As to `CCN(CC)c1ccc(N=Nc2ccc(-c3nc4cccnc4o3)cc2)cc1`, the TGI in [1], in assay [2], in assay [3], in assay [4], in [5] and in assay [6] was above 100 µM throughout. Besides, the TGI in [7], in assay [8], in assay [9] and in assay [10] was above 100 µM in each case.
In the case of `COC(=O)CCC/C=C\C[C@H]1C=CC(=O)/C1=C/C[C@@H](O)CCc1cccc(C(F)(F)F)c1`, the GI50 in assay [1] was 3.28 µM; in assay [2] it was 2.02 µM; in assay [3], 2.39 µM; in [4], 0.955 µM; in assay [5], 1.73 µM; in [6], 3.31 µM. In addition, the GI50 is 1.73 µM in assay [7], 2.48 µM in assay [8], 2.12 µM in [9] and 2.03 µM in assay [10]. Moreover, the TGI in [1] came out at 10.6 µM; in [2], 5.57 µM; in assay [3], 5.85 µM; in assay [4], 2.24 µM; in assay [5] it was 3.29 µM; in [6], 11.8 µM. In addition, the TGI in assay [7] was determined as 3.2 µM; in assay [8], 7.49 µM; in assay [9], 5.21 µM; in assay [10] it was 5.18 µM.
Regarding `CCCCNc1nc(NC(C)(C)C)nc(NC(C)(C)C)n1`, the GI50 in [1] was 7.2 µM; in [2] it was 6.32 µM; in [3] it was 4.44 µM; in assay [4], 3.39 µM; in assay [5] it was 7.41 µM; in assay [6], 4.74 µM. Also, the GI50 in [7] was 3.49 µM; in assay [8], 81.3 µM; in [9], 6.03 µM; in assay [10], 5.89 µM. Moreover, the TGI in assay [1] is above 100 µM; in [2], above 100 µM; in assay [3], above 100 µM; in assay [4], 23.6 µM; in assay [5], above 100 µM; in assay [6] it was above 100 µM. Besides, the TGI in [7] was 17.7 µM; in [8], above 100 µM; in [9] it was above 100 µM; in assay [10], above 100 µM.
For the compound `Clc1nc(Oc2ccccc2)nc(-c2cn(-c3ccccc3)c3ccccc23)n1`, the GI50 was 2.92 µM in [1]; 1.88 µM in assay [2]; 10.6 µM in assay [3]; 2.44 µM in [4]; 3.04 µM in assay [5]; 3.25 µM in assay [6]. The GI50 in assay [7] is 14.3 µM; in assay [8], 9.2 µM; in [9] it was above 44.7 µM; in assay [10], 7.31 µM. The TGI was 9.24 µM in assay [1]; 3.88 µM in assay [2]; 24.6 µM in [3]; 5.93 µM in [4]; 7.95 µM in assay [5]; 11 µM in assay [6]. Further, the TGI was 30.5 µM in assay [7], 25 µM in assay [8], above 61 µM in [9] and 22.4 µM in assay [10].
On to `CCOC(=O)[C@@H](C)C[C@H](Cc1ccccc1)NC(=O)c1csc([C@@H](C[C@H](C(C)C)N(C)C(=O)[C@@H](NC(=O)[C@H]2C[C@H](O[Si](C)(C)C(C)(C)C)CCN2C)C(C)C)OC(C)=O)n1`, for which the GI50 in assay [1] was 0.319 µM; in assay [2], 0.128 µM; in assay [3] it was 0.145 µM; in assay [4], 0.304 µM; in assay [5], 0.44 µM; in assay [6], 0.744 µM. The GI50 in assay [7] was 0.187 µM; in assay [8], 0.789 µM; in [9], 0.249 µM; in assay [10], 0.333 µM. Besides, the TGI in [1] is above 8.33 µM; in assay [2] it was 1.03 µM; in assay [3] it was 0.459 µM; in assay [4], above 5.08 µM; in [5] it was above 8.33 µM; in assay [6], above 8.33 µM. Besides, the TGI in assay [7] is 1.39 µM; in [8], above 8.33 µM; in assay [9], 3.41 µM; in [10], above 8.33 µM.
Regarding `CC(=O)NC(CCCCNC(=O)OCc1ccccc1)C(=O)NCc1ccccc1` (stereo not given), the TGI in assay [1], in [2], in assay [3], in assay [4], in assay [5] and in [6] was above 100 µM in each case. The TGI in [7], in assay [8], in [9] and in assay [10] was above 100 µM throughout.
Turning to `CCCCCCC/C=C/[C@H]1O[C@]23C(=O)C[C@@]4(C[C@@H](OC5OC(CO)C(O)C(O)C5O)C[C@@H]4[C@H]2C=C1C)OC3=O` (stereo not given in full), the GI50 was 3.56 µM in assay [1]; 1.7 µM in [2]; 7.1 µM in assay [3]; 2.4 µM in assay [4]; 3.61 µM in assay [5]; 6.08 µM in assay [6]. For the same compound, the GI50 was 4.88 µM in assay [7], 5.21 µM in [8], 5.12 µM in assay [9] and 5.75 µM in assay [10]. The TGI in assay [1] is 11.7 µM; in [2], 8.64 µM; in assay [3], 17.8 µM; in assay [4] it was 6.84 µM; in assay [5], 7.57 µM; in assay [6] it was above 33.3 µM. In addition, the TGI is 9.37 µM in [7], 12.4 µM in [8], 12.7 µM in [9] and 15.8 µM in [10].
For the compound `CN1CCN(CCSC2Cc3cc(Cl)ccc3Sc3ccccc32)CC1` (stereo not given), the TGI was found to be 7.21 µM in assay [1]; 12.8 µM in assay [2]; 3.26 µM in [3]; 14.1 µM in assay [4]; 21.6 µM in assay [5]; 19.4 µM in [6]. For the same compound, the TGI in assay [7] amounted to 7.88 µM; in assay [8], 4.38 µM; in [9] it was 15.6 µM; in assay [10] it was 23.6 µM.
`COc1cc(-c2cnn(C)c2)ccc1Nc1ncc2ccnc(N[C@@H](C)C(C)(C)C)c2n1`: the GI50 was 1.46 µM in assay [1]; above 100 µM in assay [2]; 1.81 µM in assay [3]; 5.43 µM in assay [4]; above 100 µM in assay [5]; above 49.6 µM in assay [6]. Further, the GI50 in [7] is above 79 µM; in [8], above 100 µM; in assay [9], above 63.3 µM; in assay [10] it was above 53.7 µM. The TGI in [1], in assay [2], in [3], in [4], in assay [5] and in assay [6] was above 100 µM in each case. For the same compound, the TGI in [7], in assay [8], in assay [9] and in assay [10] was above 100 µM in each case.
